{"source": "patent US9382229B2", "about": "“Compounds and methods of use thereof for treating neurodegenerative disorders” (THE JOHNS HOPKINS UNIVERSITY, priority 2011, dated 2016)", "key": {"[1]": {"system": "retinal ganglion cells (RGCs)", "experiment": "RGC cell survival assay with murine purified RGCs, 3 days in culture (Calcein AM/Hoechst/Ethidium homodimer staining, Cellomics imager)", "type": "cell-based, mouse", "settings": "for RGC survival: purified mouse RGCs cultured 3 days with 25-5000 nM compound", "description": "RGCs were purified from 2-5 day-old C57BL/6 mice, and cultured for 3 days in a media containing Neurobasal and B27, with or without 25-5000 nM of sunitinib (sun) or VX680. RGC survival was determined by combined staining with Calcein A M, Hoescht, and Ethidium homodimer. Images were acquired and analyzed with a Cellomics imager. Error bars: Mean±S.E.M.;\nPurified mouse RGCs were cultured in the presence of sunitinib (0.5 μM), 25-5000 nM of VX680, JHU611 or JHU612, for 3 days. RGC survival was determined by combined staining with Calcein A M, Hoescht, and Ethidium homodimer. Images were acquired and analyzed with a Cellomics imager. Error bars: Mean±S.E.M.;\nPurified mouse RGCs were cultured in the presence of sunitinib (0.5 μM), 25-5000 nM of VX680, JHU609 or JHU610, for 3 days. RGC survival was determined by combined staining with Calcein A M, Hoescht, and Ethidium homodimer. Images were acquired and analyzed with a Cellomics imager. Error bars: Mean±S.E.M.;\nPurified mouse RGCs were cultured in the presence of sunitinib (0.5 μM), 25-5000 nM of VX680, JHU607 or JHU608, for 3 days. The percentages of RGC survival was determined by combined staining with Calcein A M, Hoescht, and Ethidium homodimer. Images were acquired and analyzed with a Cellomics imager. Error bars: Mean±S.E.M.;\nRGCs were cultured with the indicated drug at the indicated concentration, cultured, and survival was monitored using a calcein AM assay with a Cellomics VTI imager (Thermo Scientific, 100 Technology Drive, Pittsburgh, Pa.) and image analysis software."}, "[2]": {"system": "primary murine retinal ganglion cells (RGCs)", "experiment": "RGC-based high content screen of small molecule libraries (CellTiter-Glo ATP, PI/Hoechst staining)", "type": "cell-based, mouse", "settings": "purified primary murine RGCs, CellTiter-Glo or PI/Hoechst", "description": "Survival of purified mouse RGCs with increasing concentrations of VX680 (tozasertib) was determined by measuring cellular ATP levels with CellTiter-Glo (CTG), or by combined staining with Propidium iodide (PI) and Hoescht (Hoe) (PI/Hoe) (FIG. 8A). The efficacy in promoting primary mouse RGC survival by VX680 and NCGC00188382-01 was quantified and compared to sunitinib (FIGS. 8B and 8C)."}, "[3]": {"system": "hippocampal neurons", "experiment": "Hippocampal neuron survival against 3-nitropropionic acid (3-NP) induced cell death, MTT assay", "type": "cell-based", "settings": "cell death induced by 3-NP, VX680 at 0.5, 1, 5 and 10 μM", "description": "Cell death of hippocampal neurons was induced by the mitochondrial toxin 3-nitropropionic acid (3-NP). VX680 was added to the media at concentrations of 0.5 μM, 1 μM, 5 μM and 10 μM. Cell survival was determined using a MTT assay. The effect of VX680 on cell survival was analyzed with the student t-test. Error bars: Mean±S.D.; and […]"}, "[4]": {"system": "retinal ganglion cells (RGCs)", "experiment": "Time course of RGC cell survival with murine purified RGCs, up to 6 days in vitro", "type": "cell-based, mouse", "settings": "for RGC survival: 6 days in vitro (DIV6), percent survival compared to zero time per FIG. 2 legend, Mean±S.E.M.", "description": "FIG. 2 is a comparison of the relative efficacy of sunitinib, VX680 and neurotrophic factors in promoting RGC survival in vitro. […] Purified mouse RGCs were cultured in the presence of sunitinib (0.5 or 1 μM), VX680 (1 or 2 μM), and a combination of BDNF, CNTF, and GDNF, for up to 6 days. RGC survival (percent survival compared to zero time) was determined at the indicated day in vitro (DIV) (0, 1, 2, 3, and 6 DIV). Error bars: Mean±S.E.M.;\nFIG. 3 is representative images showing the RGCs from the study described in FIG. 2;\nFor comparison, data from vehicle and BDNF/CNTF/GDNF also are shown."}}, "data": [{"smiles": "Cc1cc(Nc2nc(Sc3ccc(NC(=O)C4CC4)cc3)nc(N3CCOCC3)n2)n[nH]1", "note": "[JHU609, N-(4-(4-(5-methyl-1H-pyrazol-3-ylamino)-6-morpholino-1,3,5-triazin-2-ylthio)phenyl)cyclopropanecarboxamide]", "values": [{"measurement": "RGC survival", "setting": "[1]", "value": "promote RGC survival"}]}, {"smiles": "Cc1cc(Nc2nc(Sc3ccc(NC(=O)C4CC4)cc3)nc(N3CCC(O)CC3)n2)n[nH]1", "note": "[JHU611, N-(4-(4-(4-hydroxypiperidin-1-yl)-6-(5-methyl-1H-pyrazol-3-ylamino)-1,3,5-triazin-2-ylthio)phenyl)cyclopropanecarboxamide]", "values": [{"measurement": "RGC survival", "setting": "[1]", "value": "promote RGC survival"}]}, {"smiles": "Cc1cc(Nc2nc(Sc3ccc(NC(=O)C4CC4)cc3)nc(N3CCNCC3)n2)n[nH]1", "note": "[JHU608, N-(4-(4-(5-methyl-1H-pyrazol-3-ylamino)-6-(piperazin-1-yl)-1,3,5-triazin-2-ylthio)phenyl)cyclopropanecarboxamide]", "values": [{"measurement": "RGC survival", "setting": "[1]", "value": "promote RGC survival"}]}, {"smiles": "Cc1cc(Nc2cc(N3CCN(C)CC3)nc(Sc3ccc(NC(=O)C4CC4)cc3)n2)[nH]n1", "note": "[VX-680, Tozasertib]", "values": [{"measurement": "therapeutic window compared with sunitinib", "setting": "[1]; FIG. 1, murine purified RGCs", "value": "wider therapeutic window"}, {"measurement": "cell survival promoting activity compared with sunitinib", "setting": "[1]; FIG. 1, murine purified RGCs, calcein AM assay, sunitinib as positive control", "value": "more potent cell survival promoting activity than sunitinib"}, {"measurement": "RGC survival", "setting": "[1]", "value": "promotes retinal ganglion cell (RGC) survival in vitro"}, {"measurement": "RGC survival / neuroprotection in high content screen", "setting": "[2]", "value": "could promote the survival of cultured RGCs"}, {"measurement": "RGC survival / neuroprotection in high content screen", "setting": "[2]; listed as VX680", "value": "neuroprotective compounds"}, {"measurement": "survival of hippocampal neurons", "setting": "[3]", "value": "promotes the survival of hippocampal neurons against mitochondrial injury and oxidative stress"}, {"measurement": "RGC survival", "setting": "[4]; 1 μM", "value": "49.66 ± 2.27"}, {"measurement": "RGC survival", "setting": "[4]; 2 μM", "value": "60.32 ± 2.47"}, {"measurement": "neuroprotective activity compared with sunitinib and BDNF/CNTF/GDNF combination", "setting": "[4]; FIG. 2, time course 0-6 DIV", "value": "exceeds that of sunitinib and a combination of brain derived neurotrophic factor (BDNF) ciliary neurotrophic factor (CNTF), and glial-derived neurotrophic factor (GDNF)"}]}, {"smiles": "CC(NCc1ccc2c(c1)nc(NC(=O)c1ccc(-c3cn[nH]c3)s1)n2CC(C)(C)O)C(C)(C)C", "note": "(stereo not drawn) [NCGC00188382-01]", "values": [{"measurement": "RGC survival / neuroprotection in high content screen", "setting": "[2]", "value": "neuroprotective compounds"}]}, {"smiles": "Cc1cc(Nc2nc(Sc3ccc(NC(=O)C4CC4)cc3)nc(N3CCCNCC3)n2)n[nH]1", "note": "[JHU612, N-(4-(4-(1,4-diazepan-1-yl)-6-(5-methyl-1H-pyrazol-3-ylamino)-1,3,5-triazin-2-ylthio)phenyl)cyclopropanecarboxamide]", "values": [{"measurement": "RGC survival", "setting": "[1]", "value": "promote RGC survival"}]}, {"smiles": "CCN(CC)CCNC(=O)c1c(C)[nH]c(/C=C2\\C(=O)Nc3ccc(F)cc32)c1C", "note": "[Sunitinib, sunitinib]", "values": [{"measurement": "RGC survival", "setting": "[4]; 0.5 μM", "value": "23.73 ± 1.17"}, {"measurement": "RGC survival", "setting": "[4]; 1 μM", "value": "26.37 ± 1.61"}]}, {"smiles": "Cc1cc(Nc2nc(Sc3ccc(NC(=O)C4CC4)cc3)nc(N3CCC(N4CCCC4)CC3)n2)n[nH]1", "note": "[JHU610, N-(4-(4-(5-methyl-1H-pyrazol-3-ylamino)-6-(4-(pyrrolidin-1-yl)piperidin-1-yl)-1,3,5-triazin-2-ylthio)phenyl)cyclopropanecarboxamide]", "values": [{"measurement": "RGC survival", "setting": "[1]", "value": "promote RGC survival"}]}, {"smiles": "Cc1cc(Nc2nc(Cl)nc(Sc3ccc(NC(=O)C4CC4)cc3)n2)n[nH]1", "note": "[JHU607, N-(4-(4-chloro-6-(5-methyl-1H-pyrazol-3-ylamino)-1,3,5-triazin-2-ylthio)phenyl)cyclopropanecarboxamide]", "values": [{"measurement": "RGC survival", "setting": "[1]", "value": "promote RGC survival"}]}]}
